# In ChEMBL document CHEMBL1133669 (J Med Chem, 2000):
# Molecular target: Carbonic anhydrase 1 (Homo sapiens, UniProt P00915)
# Sequence (P00915 whole entry): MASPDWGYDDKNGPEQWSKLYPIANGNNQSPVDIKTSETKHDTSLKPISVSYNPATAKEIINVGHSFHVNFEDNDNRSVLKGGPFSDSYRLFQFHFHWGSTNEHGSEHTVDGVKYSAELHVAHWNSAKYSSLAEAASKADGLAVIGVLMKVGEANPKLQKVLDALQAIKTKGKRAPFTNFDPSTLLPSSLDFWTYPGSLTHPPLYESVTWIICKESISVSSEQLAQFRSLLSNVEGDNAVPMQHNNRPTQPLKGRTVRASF
# Description: Inhibitory activity against human carbonic anhydrase I (CA1)
row,Ki [nM],SMILES
1,35000,Cc1cc(C)[n+](CC(=O)NNc2ccc(S(N)(=O)=O)cc2)c(C)c1
2,45,CCc1cc(-c2ccccc2)cc(CC)[n+]1CC(=O)Nc1nccc(Nc2ccc(S(N)(=O)=O)cc2)n1
3,1100,Cc1cc(-c2ccccc2)cc(C)[n+]1CC(=O)OCCc1ccc(S(N)(=O)=O)cc1
4,14,CC(C)c1cc(-c2ccccc2)cc(C(C)C)[n+]1CC(=O)Nc1ccc(S(=O)(=O)Nc2nnc(S(N)(=O)=O)s2)cc1
5,9,Cc1cc(-c2ccccc2)cc(C)[n+]1CC(=O)OCCOc1ccc2nc(S(N)(=O)=O)sc2c1
6,1770,CC(C)c1cc(-c2ccccc2)cc(C(C)C)[n+]1CC(=O)OCc1ccc(S(N)(=O)=O)cc1
7,25300,Cc1cc(-c2ccccc2)cc(C)[n+]1CC(=O)Nc1ccccc1S(N)(=O)=O
8,810,Cc1cc(C)[n+](CC(=O)Nc2ccc(S(N)(=O)=O)cc2I)c(C)c1
9,1350,Cc1cc(-c2ccccc2)cc(C)[n+]1CC(=O)OCc1ccc(S(N)(=O)=O)cc1
10,15,Cc1cc(C)[n+](CC(=O)Nc2ccc3nc(S(N)(=O)=O)sc3c2)c(C)c1
11,12,CCc1cc(-c2ccccc2)cc(CC)[n+]1CC(=O)Nc1ccc(S(=O)(=O)Nc2nnc(S(N)(=O)=O)s2)cc1
12,23100,CC(C)c1cc(-c2ccccc2)cc(C(C)C)[n+]1CC(=O)Nc1cccc(S(N)(=O)=O)c1
13,700,Cc1cc(-c2ccccc2)cc(C)[n+]1CC(=O)Nc1ccc(S(N)(=O)=O)cc1F
14,61,Cc1cc(C)[n+](CC(=O)Nc2ccc(S(=O)(=O)Nc3cccc(S(N)(=O)=O)c3)cc2)c(C)c1
15,27500,CCc1cc(-c2ccccc2)cc(CC)[n+]1CC(=O)Nc1ccccc1S(N)(=O)=O
16,15000,CCc1cc(-c2ccccc2)cc(CC)[n+]1CC(=O)Nc1ccc(S(N)(=O)=O)cc1
17,32000,Cc1cc(C)[n+](CC(=O)Nc2ccccc2S(N)(=O)=O)c(C)c1

row,Ki [nM],SMILES
1,615,CCc1cc(-c2ccccc2)cc(CC)[n+]1CC(=O)Nc1ccc(S(N)(=O)=O)cc1Br
2,600,Cc1cc(-c2ccccc2)cc(C)[n+]1CC(=O)Nc1ccc(S(N)(=O)=O)cc1Br
3,805,Cc1cc(C)[n+](CC(=O)NCCc2ccc(S(N)(=O)=O)cc2)c(C)c1
4,380,Cc1cc(-c2ccccc2)cc(C)[n+]1CC(=O)Nc1c(S(N)(=O)=O)cc(S(N)(=O)=O)c(Cl)c1Cl
5,310,CCc1cc(-c2ccccc2)cc(CC)[n+]1CC(=O)Nc1cc(C(F)(F)F)c(S(N)(=O)=O)cc1S(N)(=O)=O
6,12,CC(C)c1cc(-c2ccccc2)cc(C(C)C)[n+]1CC(=O)Oc1ccc2nc(S(N)(=O)=O)sc2c1
7,12,Cc1cc(C)[n+](CC(=O)OCCOc2ccc3nc(S(N)(=O)=O)sc3c2)c(C)c1
8,11,CCc1cc(-c2ccccc2)cc(CC)[n+]1CC(=O)Nc1ccc2nc(S(N)(=O)=O)sc2c1
9,1700,CCc1cc(-c2ccccc2)cc(CC)[n+]1CC(=O)OCc1ccc(S(N)(=O)=O)cc1
10,35,Cc1cc(-c2ccccc2)cc(C)[n+]1CC(=O)Nc1nccc(Nc2ccc(S(N)(=O)=O)cc2)n1
11,46,CCc1cc(-c2ccccc2)cc(CC)[n+]1CC(=O)Nc1ccc(S(=O)(=O)Nc2ccc(S(N)(=O)=O)cc2)cc1
12,1500,Cc1cc(C)[n+](CC(=O)NCc2ccc(S(N)(=O)=O)cc2)c(C)c1
13,16000,Cc1cc(C)[n+](CC(=O)Nc2ccc(S(N)(=O)=O)cc2)c(C)c1
14,34000,CC(C)c1cc(-c2ccccc2)cc(C(C)C)[n+]1CC(=O)NNc1ccc(S(N)(=O)=O)cc1
15,310,CC(C)c1cc(-c2ccccc2)cc(C(C)C)[n+]1CC(=O)Nc1cc(C(F)(F)F)c(S(N)(=O)=O)cc1S(N)(=O)=O
16,1450,CC(C)c1cc(-c2ccccc2)cc(C(C)C)[n+]1CC(=O)NCc1ccc(S(N)(=O)=O)cc1
17,350,CC(C)c1cc(-c2ccccc2)cc(C(C)C)[n+]1CC(=O)Nc1cc(Cl)c(S(N)(=O)=O)cc1S(N)(=O)=O

# Molecular target: T1, Carbonic anhydrase 4 (Bos taurus, UniProt Q95323)
# T1 sequence (Q95323 whole entry): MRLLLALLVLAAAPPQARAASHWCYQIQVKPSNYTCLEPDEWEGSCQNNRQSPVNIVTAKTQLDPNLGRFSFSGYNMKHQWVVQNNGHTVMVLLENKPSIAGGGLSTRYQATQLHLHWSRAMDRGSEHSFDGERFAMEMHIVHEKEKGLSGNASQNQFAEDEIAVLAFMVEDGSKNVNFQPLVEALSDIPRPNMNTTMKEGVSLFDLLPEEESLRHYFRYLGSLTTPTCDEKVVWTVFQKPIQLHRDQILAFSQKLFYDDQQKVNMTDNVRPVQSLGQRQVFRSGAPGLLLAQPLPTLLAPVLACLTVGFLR
# Description: Inhibitory activity against bovine carbonic anhydrase IV (CA4), isolated from bovine lung microsomes
row,Ki [nM],SMILES
1,450,Cc1cc(C)[n+](CC(=O)NNc2ccc(S(N)(=O)=O)cc2)c(C)c1
2,58,CCc1cc(-c2ccccc2)cc(CC)[n+]1CC(=O)Nc1nccc(Nc2ccc(S(N)(=O)=O)cc2)n1
3,69,Cc1cc(-c2ccccc2)cc(C)[n+]1CC(=O)OCCc1ccc(S(N)(=O)=O)cc1
4,10,CC(C)c1cc(-c2ccccc2)cc(C(C)C)[n+]1CC(=O)Nc1ccc(S(=O)(=O)Nc2nnc(S(N)(=O)=O)s2)cc1
5,16,Cc1cc(-c2ccccc2)cc(C)[n+]1CC(=O)OCCOc1ccc2nc(S(N)(=O)=O)sc2c1
6,120,CC(C)c1cc(-c2ccccc2)cc(C(C)C)[n+]1CC(=O)OCc1ccc(S(N)(=O)=O)cc1
7,290,Cc1cc(-c2ccccc2)cc(C)[n+]1CC(=O)Nc1ccccc1S(N)(=O)=O
8,78,Cc1cc(C)[n+](CC(=O)Nc2ccc(S(N)(=O)=O)cc2I)c(C)c1
9,75,Cc1cc(-c2ccccc2)cc(C)[n+]1CC(=O)OCc1ccc(S(N)(=O)=O)cc1
10,50,Cc1cc(C)[n+](CC(=O)Nc2ccc3nc(S(N)(=O)=O)sc3c2)c(C)c1
11,9,CCc1cc(-c2ccccc2)cc(CC)[n+]1CC(=O)Nc1ccc(S(=O)(=O)Nc2nnc(S(N)(=O)=O)s2)cc1
12,345,CC(C)c1cc(-c2ccccc2)cc(C(C)C)[n+]1CC(=O)Nc1cccc(S(N)(=O)=O)c1
13,36,Cc1cc(-c2ccccc2)cc(C)[n+]1CC(=O)Nc1ccc(S(N)(=O)=O)cc1F
14,86,Cc1cc(C)[n+](CC(=O)Nc2ccc(S(=O)(=O)Nc3cccc(S(N)(=O)=O)c3)cc2)c(C)c1
15,335,CCc1cc(-c2ccccc2)cc(CC)[n+]1CC(=O)Nc1ccccc1S(N)(=O)=O
16,170,CCc1cc(-c2ccccc2)cc(CC)[n+]1CC(=O)Nc1ccc(S(N)(=O)=O)cc1
17,425,Cc1cc(C)[n+](CC(=O)Nc2ccccc2S(N)(=O)=O)c(C)c1

row,Ki [nM],SMILES
1,55,CCc1cc(-c2ccccc2)cc(CC)[n+]1CC(=O)Nc1ccc(S(N)(=O)=O)cc1Br
2,35,Cc1cc(-c2ccccc2)cc(C)[n+]1CC(=O)Nc1ccc(S(N)(=O)=O)cc1Br
3,71,Cc1cc(C)[n+](CC(=O)NCCc2ccc(S(N)(=O)=O)cc2)c(C)c1
4,31,Cc1cc(-c2ccccc2)cc(C)[n+]1CC(=O)Nc1c(S(N)(=O)=O)cc(S(N)(=O)=O)c(Cl)c1Cl
5,33,CCc1cc(-c2ccccc2)cc(CC)[n+]1CC(=O)Nc1cc(C(F)(F)F)c(S(N)(=O)=O)cc1S(N)(=O)=O
6,39,CC(C)c1cc(-c2ccccc2)cc(C(C)C)[n+]1CC(=O)Oc1ccc2nc(S(N)(=O)=O)sc2c1
7,33,Cc1cc(C)[n+](CC(=O)OCCOc2ccc3nc(S(N)(=O)=O)sc3c2)c(C)c1
8,30,CCc1cc(-c2ccccc2)cc(CC)[n+]1CC(=O)Nc1ccc2nc(S(N)(=O)=O)sc2c1
9,97,CCc1cc(-c2ccccc2)cc(CC)[n+]1CC(=O)OCc1ccc(S(N)(=O)=O)cc1
10,50,Cc1cc(-c2ccccc2)cc(C)[n+]1CC(=O)Nc1nccc(Nc2ccc(S(N)(=O)=O)cc2)n1
11,63,CCc1cc(-c2ccccc2)cc(CC)[n+]1CC(=O)Nc1ccc(S(=O)(=O)Nc2ccc(S(N)(=O)=O)cc2)cc1
12,80,Cc1cc(C)[n+](CC(=O)NCc2ccc(S(N)(=O)=O)cc2)c(C)c1
13,190,Cc1cc(C)[n+](CC(=O)Nc2ccc(S(N)(=O)=O)cc2)c(C)c1
14,360,CC(C)c1cc(-c2ccccc2)cc(C(C)C)[n+]1CC(=O)NNc1ccc(S(N)(=O)=O)cc1
15,42,CC(C)c1cc(-c2ccccc2)cc(C(C)C)[n+]1CC(=O)Nc1cc(C(F)(F)F)c(S(N)(=O)=O)cc1S(N)(=O)=O
16,75,CC(C)c1cc(-c2ccccc2)cc(C(C)C)[n+]1CC(=O)NCc1ccc(S(N)(=O)=O)cc1
17,46,CC(C)c1cc(-c2ccccc2)cc(C(C)C)[n+]1CC(=O)Nc1cc(Cl)c(S(N)(=O)=O)cc1S(N)(=O)=O
